Experimental data reported in patent US12527773B2, “Flavi-block: a pan-flavivirus inhibitor” (Baden-Württemberg Stiftung GmbH, priority 2020, dated 2026).
Structures can show the parent of a compound that is named as a salt.

How the values were obtained:
[1] = tested on: hematopoietic stem cell formation; test: Effect on zebrafish hematopoietic stem cell formation (in situ runx-1+c-myb); assay type: in vivo; details: 36 hpf
Description: Zebrafish embryos were exposed 20-30 min after fertilization to differing concentrations of the compounds C10 and D1 (5 μM; 15 μM; 25 μM) or to medium containing the corresponding solvent (DMSO) concentration. Therefore, 3-5 embryos were sorted into each of three wells of a 96 well plate containing 200 μl of medium. For phenotype analysis, triplicates were imaged after 6-7 h post fertilization (hpf) at approximately shield stage, after 24 hpf and after 48 hpf. Dead +unfertilized embryos were removed. For imaging at 24 hpf +48 hpf; embryos were anesthetized using MESAB. (A) Diagramm showing the percentage of embryos at each time point either developing normal (blue color) or with the indicated phenotype. (B) representative images of embryos treated with the indicated compounds, or controls at the respective time points. (C) To additionally elucidate the influence on hematopoietic stem cell formation, approx. half of the embryos were sampled at 36 hpf and an in situ staining for runx-1+c-myb was performed. Shown are representative images of hematopoietic stem cell formation with the treatment indicated.
Embryos were exposed 20-30 min after fertilization to differing concentrations of the compounds C10 and D1 (5 μM; 15 μM; 25 μM) or to medium containing the corresponding solvent (DMSO) concentration. […]

Huh7.5 cells = test: SAR test of C10 derivatives: cytotoxicity (CellTiterGlo); details: 48 h
HCV = test: IC50 against HCV, RLuc reporter virus, re-infection of naïve Huh7.5 cells; assay type: cell-based, Hepatitis C virus; details: serial dilutions 20 to 0.0024 μM
Description: Concerning the SAR studies, 45 C10 derivatives were designed and synthesized, which were tested regarding both their antiviral activity against HCV and DENV, as well as their cytotoxicity. For the activity test, a construct including the viral genome and the reporter gene RLuc was used.
Huh7.5 cells were electroporated with the corresponding RNA, seeded in 96-well plate and treated during 24/48 h with C10 and the different compounds. The supernatant of virus-producing cells was used to re-infect naïve Huh7.5 cells, which were then lysed and their RLuc signal measured.

DENV capsid protein = biological target: T1, DENV capsid protein (Dengue virus type 2, UniProt P29990); test: Crosslinking of recombinant DENV capsid protein (Western blot); assay type: biochemical
T1 construct: recombinant DENV capsid protein; made in house; host or cells: E. coli
From the text: (§1) DSS was included as a positive control.

[2] = tested on: VP1 polyomavirus, LP1 HPV16, p24 HIV, BSA, GFP; test: Specificity in the cross-linking assay: other capsid and non-related proteins; assay type: biochemical
Description: as §1
To study the specificity of C10, capsid proteins of other viruses (VP1 polyomavirus, LP1 HPV16, and p24 HIV) as well as non-related proteins (BSA, GFP), were incubated in the so-called cross-linking assay, with DSS or C10.

[3] = Metabolic stability in mouse liver microsomes; details: male, Balb/c, mouse, microsomes, pH 7.4
Description: Microsomal incubations were carried out in 96-well plates in 5 aliquots of […] each (one for each time point). […] Control incubations were performed replacing the NADPH-cofactor system with PBS. […] Incubations were performed in duplicates. Five time points over 40 minutes had been analyzed. The reactions were stopped by adding 12 volumes of 90% acetonitrile-water to incubation aliquots, followed by protein sedimentation by centrifuging at 5500 rpm for 3 minutes. […]. Supernatants were analyzed using the HPLC system coupled with tandem mass spectrometer.
The elimination constant (kel), half-life (t½) and intrinsic clearance (Clint) were determined in plot of In(AUC) versus time, using linear regression analysis (In order to indicate the quality of the linear regression analysis, the R (correlation coefficient) values are provided. In some cases, the last time point is excluded from the calculations to ensure acceptable logarithmic linearity of decay): […]

in vitro = details: for % Remain. Mean: mouse plasma, 1 μM, 37° C.
Description: Plasma stability is defined as the percentage of parent compound remaining in plasma over the time.
Incubations were carried out in 5 aliquots of 70 μL each (one for each time point), in duplicates. Test compounds (1 μM, final DMSO concentration 1%) were incubated at 37° C. with shaking at 100 rpm. Five time points over 120 minutes have been analyzed. The reactions were stopped by adding 420 μL of acetonitrile-water mixture (90:10) with subsequent plasma proteins sedimentation by centrifuging at 5500 rpm for 5 minutes. Supernatants were analyzed by the HPLC system coupled with tandem mass spectrometer. The percentage of the test compounds remaining after incubation in plasma and their half-lives (T1/2) were calculated.

For CCN1/C(=C/C=C/c2sc3cc(N)ccc3[n+]2CC)Sc2cc(N)ccc21.[I-] [D1, 6-amino-2-[(1E)-3-[(2Z)-6-amino-3-ethyl-2,3-dihydro-1,3-benzothiazol-2-ylidene]prop-1-en-1-yl]-3-ethyl-1,3-benzothiazol-3-ium iodide], the “hematopoietic stem cell formation” value [1] was “no difference to the WT embryos”.

With CC(=O)Nc1ccc2c(c1)S/C(=C\C=C\c1sc3cc(NC(C)=O)ccc3[n+]1C)N2C [compound 45, 6-acetamido-2-((1E,3E)-3-(6-acetamido-3-methylbenzo[d]thiazol-2(3H)-ylidene)prop-1-en-1-yl)-3-methylbenzo[d]thiazol-3-ium iodide] the cytotoxicity (Huh7.5 cells) was “not cytotoxic at the concentrations in which they are antiviral” and the “potency relative to C10 (IC50 against HCV)” value (HCV) was 2.5 times.

In the case of O=C(CCCCCCC(=O)ON1C(=O)CCC1=O)ON1C(=O)CCC1=O [DSS, disuccinimidyl suberate, reference compound], the “effect on oligomerization state of DENV capsid protein” value (DENV capsid protein) is reported as “stabilizes mainly the dimer” and the “crosslinking effect on other capsid and non-related proteins” value [2] is reported as “clear effect of monomer consumption and dimer formation”.

With CC(C)NCC(O)COc1cccc2ccccc12 (racemic) [Propranolol, (+,−) Propranolol hydrochloride, reference compound] the half-life at 2 mM [3] was 53.9 min.

In the case of CCN1/C(=C/C(C)=C/c2sc3cc(NC(C)=O)ccc3[n+]2CC)Sc2cc(NC(C)=O)ccc21 [compound 46, 6-acetamido-2-((1E,3E)-3-(6-acetamido-3-ethylbenzo[d]thiazol-2(3H)-ylidene)-2-methylprop-1-en-1-yl)-3-ethylbenzo[d]thiazol-3-ium iodide], the cytotoxicity (Huh7.5 cells) is reported as “not cytotoxic at the concentrations in which they are antiviral” and the “potency relative to C10 (IC50 against HCV)” value (HCV) is reported as 1.5 times.

With CC(C)[N+](C)(CCOC(=O)C1c2ccccc2Oc2ccccc21)C(C)C [Propantheline, Propantheline bromide, reference compound] the “% Remain. Mean” value (in vitro; 0 min) was 100%, the “% Remain. Mean” value (in vitro; 20 min) was 66% and the “% Remain. Mean” value (in vitro; 40 min) was 29%. The “% Remain. Mean” value (in vitro; 60 min) was 13%, the “% Remain. Mean” value (in vitro; 120 min) was 2% and the half-life at 1 μM (in vitro; mouse, plasma) was 20 min.
